We go through one sequence from patent US20220096614A1, “PEPTIDE-INDUCED NK CELL ACTIVATION” (University of Southampton, priority 2019, published 2022).

In the assay the test system is KIR2DS2. Briefly: KIR2DS2 tetramer staining of peptide-loaded 721.174 cells (flow cytometry). In kind it is binding. The note with it: 721.174 cells loaded with peptide; KIR2DS2 tetramer conjugated to phycoerythrin; no peptide 10503. The text has this:
721.174 cells were loaded with peptide and then stained using a tetramer of KIR2DS2 conjugated to phycoerythrin. Shown is a flow cytometry histogram plot of the staining of the 721.174 cells in the presence or absence of peptide. Mean fluorescence intensitites are indicated: 14811 for NAPLVHATL versus 10503 for no peptide.
Background: A flow cytometer gives signals particle by particle.

Sequence of KIR2DS2 (P43631 22-245 limits assumed): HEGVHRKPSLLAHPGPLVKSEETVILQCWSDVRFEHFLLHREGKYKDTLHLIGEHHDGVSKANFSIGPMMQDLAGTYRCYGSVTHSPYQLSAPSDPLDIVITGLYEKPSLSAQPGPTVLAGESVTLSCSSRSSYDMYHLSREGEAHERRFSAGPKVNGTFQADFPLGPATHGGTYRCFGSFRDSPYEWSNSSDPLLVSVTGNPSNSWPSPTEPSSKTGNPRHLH
Sequence of KIR2DS2 (P10321 25-366, further chain): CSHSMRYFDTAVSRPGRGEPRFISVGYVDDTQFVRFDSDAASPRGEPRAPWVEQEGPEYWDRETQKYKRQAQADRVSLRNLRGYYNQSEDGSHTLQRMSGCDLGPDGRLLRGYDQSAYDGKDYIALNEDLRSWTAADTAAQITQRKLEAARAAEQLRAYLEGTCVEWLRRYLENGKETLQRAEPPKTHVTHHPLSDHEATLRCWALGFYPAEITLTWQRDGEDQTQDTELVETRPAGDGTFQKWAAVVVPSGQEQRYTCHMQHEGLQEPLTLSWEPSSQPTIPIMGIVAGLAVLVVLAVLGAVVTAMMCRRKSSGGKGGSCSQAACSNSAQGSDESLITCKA
Sequence of KIR2DS2 (P61769 21-119 partner): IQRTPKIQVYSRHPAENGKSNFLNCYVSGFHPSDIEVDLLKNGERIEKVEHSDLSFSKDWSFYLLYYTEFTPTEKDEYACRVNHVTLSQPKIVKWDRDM

As for “NAPLVHATL [peptide derived from Exportin-1 (XPO1)]”, the “Mean fluorescence intensity of KIR2DS2 tetramer staining” value was 14811.
